For one assay, the target named is T1, PRMT5 (Homo sapiens, UniProt O14744).
T1 construct: Flag; made in house; host or cells: 293 cells
Description: AlphaLISA PRMT5 methylation assay (biotin-histone H4R3, SAM). The assay is classed as biochemical. To be noted: PRMT5 methylation of histone H4R3, in vitro; read-out: IC50 using AlphaLISA. Here is the method: FIG. 1 is a schematic illustration of the AlphaLISA technique for the identification of small-molecule PRMT5 inhibitors. Biotinylated substrate (histone H4) is incubated with PRMT5 and methyl donor, S-adenosyl-1-methionine (SAM). PRMT5 symmetrically dimethylates the third arginine (R3) on biotin-H4 to form biotin-H4R3me2. This product is recognized by Acceptor beads specific for this methylation site. Donor beads have a streptavidin tag and bind to biotin-H4. Interaction between the Acceptor and Donor beads emits a chemiluminescent signal, which is detected by an ENVISION™ Reader (PerkinElmer, Waltham, MA). The methylation activity of PRMT5 is proportional to the intensity of this signal.
In order to identify PRMT5 inhibitors, the AlphaLISA technique (PerkinElmer, Waltham, MA) was adapted to an assay that could precisely quantify PRMT5 dimethylation of its substrate in a 384-well HTS platform (FIG. 1). The AlphaLISA high-throughput screen comprises incubating a biotinylated substrate (e.g., histone H4), PRMT5, and a methyl donor (e.g., S-adenosyl-1-methionine (SAM)); PRMT5 dimethylates the biotinylated substrate and the dimethylated biotinylated substrate is recognized by Acceptor beads specific for the methylation site. Donor beads comprising a tag (e.g., streptavadin) bind to the biotinylated substrate, and interaction between the Acceptor beads and Donor beads emits a signal (e.g., chemiluminescent signal), which can be detected. The methylation activity of PRMT5 is proportional to the intensity of the signal.
In one embodiment of the method used to identify the compounds disclosed herein, PRMT5 enzyme was purified with anti-Flag-M2 beads (Sigma-Aldrich, St. Louis, MO) from 293 cells overexpressing the Flag-PRMT5 protein (Wei et al., Proc Natl Acad Sci USA, 2013; 110: 13516-13521). The enzyme prep was diluted at 1:10 in assay buffer (30 mM Tris, pH 8.0, 1 mM DTT, 0.01% BSA, 0.01% Tween-20) before use. […] The plates were read using an ENVISION™ Reader (PerkinElmer, Waltham, MA).
For orientation: In Alpha technology, singlet oxygen from a donor bead excites a nearby acceptor bead.

The subject of assay [1] is PDAC cells (PANC1, MiaPaCa2 and AsPC1). The assay can be described thus: MTT cell viability assay in PDAC cell lines. The format is cell-based. Here is the method: The PRMT5 inhibitory activity of the compounds from the screen was confirmed using both AlphaLISA and an MTT [(3-(4,5-dimethylthiazolyl-2)-2,5-diphenyltetrazolium bromide)] assay (PerkinElmer, Waltham, MA). For the MTT assay, cells were seeded at 90% confluence in 96-well plates and titrated with different dosages of compound (IIa) for 4 days. Media was then removed and 100 μl of MTT (Sigma-Aldrich, St. Louis, MO) was added per well. Cells were incubated for 2 hours at 37° C. before adding 100 μl of DMSO to each well and quantified with the SYNERGY™ H1 Multi-Mode Reader (BioTek Instruments Inc., Winooski, VT). The expression of PRMT5 was examined in pancreatic ductal adenocarcinoma cells at multiple stages of disease progression and in multiple colorectal cancer cell lines. Pancreatic control (HPNE) and cancer cell lines (PANC1, MiaPaCa2 and AsPC1) were grown in Dulbecco's Modified Eagle Medium (DMEM) (GE Healthcare, Little Chalfont, UK), supplemented with 1% of penicillin/streptomycin, 10% fetal bovine serum (FBS). Colon control (FHC) and cancer (HT29, HCT116, and DLD1) cell lines were maintained in RPMI 1640 Medium (Roswell Park Memorial Institute Medium) (GE Healthcare, Little Chalfont, UK), containing 1% penicillin/streptomycin and 10% FBS, while FHC cells were cultured under the same condition with further addition of 25 mM HEPES (4-(2-hydroxyethyl)-1-piperazineethanesulfonic acid), 10 ng/ml cholera toxin, 0.005 mg/ml insulin, 0.005 mg/ml transferring, and 100 ng/ml hydrocortisone. All cell lines were cultured at 37° C. under 5% CO2. The PDAC and CRC cell lines described above were treated with increasing concentrations of compound (IIa) or the commercially available PRMT5 inhibitor EPZ015666 [drawing 12] and quantified for cell viability using the MTT assay described above. […] A soft agar experiment was also performed to determine the effect of compound (IIa) on colony growth.
On the technique in general: Formazan colour is commonly taken as a measure of viable cells.

In the next assay the test system is HT29 cells. The assay can be described thus: HT29 subcutaneous xenograft tumor efficacy study in NSG mice. The format is in vivo. To be noted: 20 mg/kg intraperitoneally 3×/week, vs vehicle control, n=4. Here is the method:
NSG (NOD scid gamma) mice were obtained from the In Vivo Therapeutics Core at Indiana University School of Medicine. After acclimation for 7 days, NSG mice (6-8 weeks old) were xenografted with mycoplasma-free PANC1 or HT29 cells subcutaneously (1×10^7 PANC1 or 3×10^6 HT29 cells used per mouse in 0.2 ml of a 1:1 mix of phosphate-buffered saline and MATRIGEL™) (BD Biosciences, San Jose, CA). Mice were randomized when tumor volumes reached about 100 mm^3. Mice were treated with either vehicle control or 20 mg/kg of compound (Ia) (drug stock dissolved in 1:1 CREMOPHOR™:ethanol solution) intraperitoneally 3 times per week. Tumor volumes and body weights were measured twice a week. The study was performed in accordance with the guidelines and standards of the Institutional Animal Care and Use Committee (IACUC). […] NSG (NOD scid gamma) mice were obtained from the In Vivo Therapeutics Core at Indiana University School of Medicine. After acclimation for 7 days, NSG mice (6-8 weeks old) were xenografted with mycoplasma-free PANC1 or HT29 cells subcutaneously (1×10^7 PANC1 or 3×10^6 HT29 cells used per mouse in 0.2 ml of a 1:1 mix of phosphate-buffered saline and MATRIGEL™) (BD Biosciences, San Jose, CA). Mice were randomized when tumor volumes reached about 100 mm^3. […] Tumor volumes and body weights were measured twice a week. […]

The IC50 is the concentration needed to halve the response being measured.

Entries after “also recorded” stand apart in the source; their conditions may differ.

T1 sequence (O14744 whole entry): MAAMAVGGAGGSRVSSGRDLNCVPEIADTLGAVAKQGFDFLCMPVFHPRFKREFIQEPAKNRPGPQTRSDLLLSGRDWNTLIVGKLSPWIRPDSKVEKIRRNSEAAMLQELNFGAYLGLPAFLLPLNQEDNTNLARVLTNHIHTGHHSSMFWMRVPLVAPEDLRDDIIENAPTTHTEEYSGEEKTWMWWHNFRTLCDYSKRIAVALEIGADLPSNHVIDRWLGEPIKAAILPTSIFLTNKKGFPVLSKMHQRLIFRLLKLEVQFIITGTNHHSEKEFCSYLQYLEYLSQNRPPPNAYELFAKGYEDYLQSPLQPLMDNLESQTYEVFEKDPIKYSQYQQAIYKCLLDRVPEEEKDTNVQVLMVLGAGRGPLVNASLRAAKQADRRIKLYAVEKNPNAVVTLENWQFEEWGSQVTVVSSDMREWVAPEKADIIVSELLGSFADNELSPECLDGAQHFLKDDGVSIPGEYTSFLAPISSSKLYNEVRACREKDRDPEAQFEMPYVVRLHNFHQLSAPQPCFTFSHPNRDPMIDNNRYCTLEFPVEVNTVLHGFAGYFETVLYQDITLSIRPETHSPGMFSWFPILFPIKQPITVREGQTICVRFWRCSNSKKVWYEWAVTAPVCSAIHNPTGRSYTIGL
T1 sequence (Q9BQA1 whole entry partner): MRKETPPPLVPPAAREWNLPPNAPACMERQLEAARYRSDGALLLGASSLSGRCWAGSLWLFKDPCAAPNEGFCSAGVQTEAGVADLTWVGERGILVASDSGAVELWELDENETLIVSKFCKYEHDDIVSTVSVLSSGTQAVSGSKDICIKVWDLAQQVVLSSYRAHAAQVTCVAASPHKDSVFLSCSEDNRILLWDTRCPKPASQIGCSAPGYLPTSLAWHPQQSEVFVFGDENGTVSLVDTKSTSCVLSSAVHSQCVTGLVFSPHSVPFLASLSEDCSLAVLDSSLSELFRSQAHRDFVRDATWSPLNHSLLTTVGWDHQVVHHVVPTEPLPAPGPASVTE

Regarding `Cc1ccc(Nc2nc(NCCN(C)C)nc3c2cnn3-c2ccccc2)cc1C` [compound (IIa)], the IC50 was approximately 7.5 µM at PRMT5; 2 to 4 µM in assay [1] (range over PANC1, MiaPaCa2 and AsPC1). Besides, the “cell viability in PDAC cells (PANC1, MiaPaCa2, AsPC1), MTT” value in assay [1] (increasing concentrations) is recorded as “decreased significantly”. Further, in the assay with HT29 cells, the “tumor growth (tumor volume), HT29 xenograft” value is “significant tumor inhibition effect; also recorded: inhibition of tumor growth”.

(Values after patent publication US12516052B2, “Methyltransferase 5 (PRMT5) inhibitors and methods of treatment” (THE TRUSTEES OF INDIANA UNIVERSITY, priority 2016, dated 2026).)
